Three molecules from patent US20240238368A1, “PEPTIDE FOR PREVENTING AND TREATING FIBROSIS” (NIBEC CO., LTD., priority 2021, published 2024) can be followed below.

Test [1] has as its system bleomycin-induced lung disease. To be noted: bleomycin mice; for fibrous deposition in the lungs (Sirius Red and hematoxylin/phloxine staining) / area of fibrosis (Sirius Red): day 22; for fibrous deposition in the lungs (Sirius Red and hematoxylin/phloxine staining): peptides 30 mg/kg subcutaneously three times a week compared to NT and nintedanib groups, FIG. 8c; for area of fibrosis (Sirius Red): compared to NT group and nintedanib-treated group, P<0.05, FIG. 8d. How it is done:
C57BL/6J mice (male, 7 weeks old) were purchased from Charles River. Mice were anesthetized by intraperitoneal administration of a mixture of Imalgene (ketamine, 100 mg/kg)/Rompun (xylazine, 20 mg/kg), and a total of 50 μl of bleomycin sulfate (1.45 mg/kg, MBcell, CA, USA) was injected intratracheally once, and saline was injected intratracheally in the normal group (day 0). On day 7, mice were divided into groups, each consisting of eight. PBS (NT), SEQ ID NO: 1 (30 mg/kg), and SEQ ID NO: 2 (30 mg/kg) were administered subcutaneously three times a week, and nintedanib (Fluorochem Ref=050741, 100 mg/kg) was administered orally daily. Each of the peptides of SEQ ID NO: 1 and SEQ ID NO: 2 was administered after dissolution in water for injection, and nintedanib was administered after mixing with water containing 0.5% hydroxyethylcellulose (Sigma; lot BCBV5033) and 0.01% Tween 80 (Sigma; lot BCBR6211V). While administering the drug for 21 days, body weight was measured every 2 days, and whether there were other clinical symptoms were checked.
After mice were sacrificed with isoflurane on day 22, lung tissue was excised therefrom and histological analysis was performed. Paraffin was introduced into the lungs, 5 μm paraffin sections were manufactured, Sirius Red staining and hematoxylin/phloxine staining were performed to evaluate the extent of pulmonary fibrosis and inflammation, and the extent of inflammation and fibrosis was observed through microscopy.
In order to quantify the fibrotic change, the area of the red (fibrotic portion) was quantified in the sample stained with Sirius Red.

The target of test [2] is T1, pSmad2 (Homo sapiens, UniProt Q15796).
T1 construct: LX-2 (Human hepatic stellate cell line, Millipore #SCC064); host or cells: LX-2 human hepatic stellate cell line
T1 sequence (Q15796 whole entry): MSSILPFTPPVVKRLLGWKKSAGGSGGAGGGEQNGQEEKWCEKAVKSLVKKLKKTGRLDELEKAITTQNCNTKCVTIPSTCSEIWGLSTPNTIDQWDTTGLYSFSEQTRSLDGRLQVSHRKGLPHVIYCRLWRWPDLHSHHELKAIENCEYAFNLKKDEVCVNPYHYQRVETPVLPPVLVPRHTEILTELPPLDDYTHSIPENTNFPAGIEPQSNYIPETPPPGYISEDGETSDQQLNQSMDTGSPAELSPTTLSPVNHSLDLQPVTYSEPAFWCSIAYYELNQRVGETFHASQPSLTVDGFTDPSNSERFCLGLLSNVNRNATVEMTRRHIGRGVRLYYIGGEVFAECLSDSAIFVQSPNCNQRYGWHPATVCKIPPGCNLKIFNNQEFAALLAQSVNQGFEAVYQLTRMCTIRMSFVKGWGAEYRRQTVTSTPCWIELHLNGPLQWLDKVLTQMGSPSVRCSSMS
Put plainly: Inhibition of phosphorylation of Smad2 (Western blotting). Particulars: LX-2 cells, 10 ng/ml TGF-β1 24 hours, then peptide 10, 100 or 200 μM 24 hours; FIG. 5. Format: cell-based. As for the experimental part: (§1) 3×10^6 LX-2 cells were treated with 10 ng/ml TGF-β1 and cultured for 24 hours. The cells were treated with 10, 100, or 200 μM of the peptide of SEQ ID NO: 2 or 10 µM SIS3 (Smad3 inhibitor, Sigma-Aldrich, catalog #566405) in fresh medium and cultured for 24 hours.
(§2) Proteins were lysed using RIPA lysis buffer (25 mM Tris HCl pH 7.6, 150 mM NaCl, 1% NP-40, 1% sodium deoxycholate, 0.1% SDS) containing a protease inhibitor and a phosphatase inhibitor. Proteins were quantified by BCA protein assay, and the expression levels of pSmad2, Smad2, pSmad3, Smad3, TGFβ receptor 1, and GAPDH proteins were determined by Western blotting. For Western blotting, the sample was loaded in the same amount along with a size marker on an 8% SDS PAGE gel, electrophoresed for about 2 hours, and then transferred to a nitrocellulose membrane. The transferred membrane was blocked with 5% skim milk for 1 hour, and allowed to react with primary antibodies at a ratio of 1:1000 overnight. The primary antibodies used were pSmad2 (Cell Signaling, #3108), Smad2 (Cell Signaling, #5339), pSmad3 (Abcam, ab52903), Smad3 (Cell Signaling, #9513), TGFβ receptor1 (Abcam, ab31013), and GAPDH (Cell Signaling, #2118S). […]
A general note: A western blot detects proteins with antibodies after separation by electrophoresis.

In test [3] the test system is TGFβ receptor 1. Put plainly: TGFβ receptor expression level (Western blotting). Format: cell-based, human. Particulars: LX-2 cells, 10 ng/ml TGF-β1 24 hours, then peptide 10, 100 or 200 μM 24 hours; FIG. 5. As for the experimental part:
as §1, §2

In test [4] the test system is MET markers (E-cadherin, EpCAM) and EMT markers (N-cadherin, Twist1, Snail1). Put plainly: Reprogramming effects in cells: MET and EMT marker gene expression (real-time PCR). Format: cell-based, human. Particulars: LX-2 cells, 10 ng/ml TGF-beta1 and 100 μM peptide, 24 hours; FIG. 7. How it is done: The medium was removed, followed by washing with DPBS (Welgene, LB001-02) and cell lysis using 1 ml of a trizol reagent (Ambion, 15596). 250 μl of chloroform was added thereto, the tube was stirred, and centrifugation was performed at 10,000 rpm for 15 minutes. After removing the aqueous layer using a pipette, 550 μl of isopropanol (Sigma, 19516) was added and shaken gently. After centrifugation at 15,000 rpm for 25 minutes, isopropanol was removed, and 1 ml of 75% ethanol was added thereto. After removal of ethanol and drying in air, the pellets were dissolved in DEPC water (Invitrogen, AM9915G). The concentration of RNA was measured using a Nano Drop (Thermo Scientific, NanoDrop One, AZY1913798).
CDNA was synthesized from the extracted RNA using a Maxima First strand CDNA synthesis kit (Thermo Fisher, K1641) according to the manufacturer's protocol. In addition, real-time PCR was performed using QuantStudio 3 (Applied Biosystems, A28132) according to the manufacturer's protocol. PCR amplification was conducted by repeating 40 cycles at 95° C. for 15 seconds, 60° C. for 50 seconds, and 72° C. for 15 seconds.
In general terms: In qPCR the cycle at which signal appears reflects the starting amount.

Test [5] deals with T2, pSmad3 (Homo sapiens, UniProt P84022).
T2 construct: LX-2 (Human hepatic stellate cell line, Millipore #SCC064); host or cells: LX-2 human hepatic stellate cell line
T2 sequence (P84022 whole entry): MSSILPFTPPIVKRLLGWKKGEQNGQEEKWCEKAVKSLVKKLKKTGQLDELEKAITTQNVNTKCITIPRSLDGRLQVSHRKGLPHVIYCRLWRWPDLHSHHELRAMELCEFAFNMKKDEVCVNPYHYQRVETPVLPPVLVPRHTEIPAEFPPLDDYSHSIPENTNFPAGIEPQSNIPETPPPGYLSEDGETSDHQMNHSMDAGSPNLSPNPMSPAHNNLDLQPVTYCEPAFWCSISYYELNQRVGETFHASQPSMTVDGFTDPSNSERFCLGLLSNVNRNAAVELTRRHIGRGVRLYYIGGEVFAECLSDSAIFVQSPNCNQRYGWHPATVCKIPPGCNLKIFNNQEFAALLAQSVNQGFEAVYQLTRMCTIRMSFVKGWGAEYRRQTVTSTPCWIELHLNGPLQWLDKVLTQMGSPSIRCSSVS
Put plainly: Inhibition of phosphorylation of Smad3 (Western blotting). It counts as cell-based. To be noted: LX-2 cells, 10 ng/ml TGF-β1 24 hours, then peptide 10, 100 or 200 μM 24 hours; effect from 10 μM; FIG. 5. How it is done:
as §1, §2

Test [6] deals with COL1A2 and COL3A1 gene expression. Description: Inhibition of collagen gene expression in cells (real-time PCR). It counts as cell-based, human. Particulars: IPF patient lung fibroblasts, 10 ng/ml TGF-β1 24 hours, then peptide 200 μM 24 hours; *p<0.05; FIG. 6. As for the experimental part:
The cells were seeded in a 24-well plate and cultured in starvation medium (Dulbecco's modified Eagle medium/F12 without FBS supplemented with 0.1 mM 2-phospho-L-ascorbic acid) for 24 hours. Recombinant Human TGF-β1 Protein (R&D Systems, #240-B-002) was diluted at 20 μg/ml in sterile 4 mM HCl containing 1 mg/ml bovine serum albumin. The cells were cultured for 24 hours in full growth media containing 10 ng/ml TGF-β1. The cells were treated with SEQ ID NO: 1 (200 μM), SEQ ID NO: 2 (200 μM), or nintedanib (10 μM) in fresh medium and cultured for 24 hours. The peptides were dissolved in purified water, nintedanib was dissolved in dimethyl sulfoxide, and the concentration of dimethyl sulfoxide in medium was set to 1%. The medium was removed, followed by washing with DPBS (Welgene, LB001-02) and cell lysis using 1 ml of a trizol reagent (Ambion, 15596). 250 μl of chloroform was added thereto, the tube was stirred, and centrifugation was performed at 10,000 rpm for 15 minutes. After removing the aqueous layer using a pipette, 550 μl of isopropanol (Sigma, 19516) was added and shaken gently. After centrifugation at 15,000 rpm for 25 minutes, isopropanol was removed, and 1 ml of 75% ethanol was added thereto. After removal of ethanol and drying in air, the pellets were dissolved in DEPC water (Invitrogen, AM9915G). The concentration of RNA was measured using a Nano Drop (Thermo Scientific, NanoDrop One, AZY1913798).
CDNA was synthesized from the extracted RNA using a Maxima First strand CDNA synthesis kit (Thermo Fisher, K1641) according to the manufacturer's protocol. In addition, real-time PCR was performed using QuantStudio 3 (Applied Biosystems, A28132) according to the manufacturer's protocol. PCR amplification was conducted by repeating 50 cycles at 95° C. for 30 seconds, 60° C. for 30 seconds, and 72° C. for 30 seconds.

In test [7] the test system is methionine-choline-deficient (MCD) diet-induced hepatitis and hepatic fibrosis. Put plainly: Methionine-choline-deficient diet mouse model (hepatitis and hepatic fibrosis). Format: in vivo, C57BL/6J mice. To be noted: MCD diet mice, peptide 20 mg/kg, 12 administrations at 3-day intervals, compared to NT group or GLP-1 agonist (liraglutide 0.2 mg/kg) group; for NAFLD activity score: FIGS. 9b, 9c; for area of fibrosis (Masson's trichrome-positive area): FIGS. 9d, 9e. As for the experimental part:
Male 6-week-old C57BL/6J mice were used, and divided into a normal diet group, a group not treated after feeding MCD diet, groups injected with the peptide of SEQ ID NO: 1 (20 mg/kg) and the peptide of SEQ ID NO: 2 (20 mg/kg), and a positive control group subcutaneously injected with liraglutide (0.2 mg/kg), which is a type of glucagon-like peptide 1 receptor agonist serving as a hepatitis therapeutic agent. After autonomous feeding of MCD diet for 10 weeks, 8 mice were assigned to each group and a therapeutic agent was administered thereto. Peptide and liraglutide were administered once a day, a total of 12 times at 3-day intervals (FIG. 9a). For all animals, body weight was measured immediately before initiation of administration and twice a week throughout the entire test. After the end of the last administration, the animals was anesthetized by intraperitoneal injection of 300 μl of Avertin, blood was collected from the abdominal vena cava by laparotomy, the liver and spleen were removed therefrom, and the weight of the removed organs was measured. Tissues were fixed in a neutral buffered formalin solution for all animals subjected to necropsy, and paraffin blocks were manufactured and sectioned through tissue processing. The tissue sections thus obtained were subjected to H&E staining. The H&E stained specimens were scored for steatosis, ballooning degeneration, and lobular inflammation (Table 3), and the extent of hepatic inflammation (NAFLD activity score) was measured. The tissue sections manufactured in the same manner as in Example 8-2 were stained with Masson's trichrome, and 100× magnification images were obtained with an optical microscope (BX51, Olympus, GER) at 5 randomly designated different sites among all Masson's trichrome-stained slides (300MI CMOS camera, […]). The blue-stained […] was measured (Image-Pro Plus, Media Cybernetics Inc., UK) and analyzed as a percentage (Masson's trichrome-positive area […]).

The mark [8] stands for this setting: nintedanib 100 mg/kg orally daily.
Setting [9] is: peptides 30 mg/kg subcutaneously three times a week.

For `COC(=O)c1ccc2c(c1)NC(=O)/C2=C(\Nc1ccc(N(C)C(=O)CN2CCN(C)CC2)cc1)c1ccccc1` [nintedanib, reference compound], the “change in body weight after treatment” value in test [1] (day 0 to day 22, treatment from day 7, peptides 30 mg/kg subcutaneously three times a week, nintedanib 100 mg/kg orally daily, FIG. 8b) is “increased”. Besides, the “fibrous deposition in the lungs (Sirius Red and hematoxylin/phloxine staining)” value in test [1] (setting [8]) is listed as “some therapeutic effect, but a lot of deposited fibrous tissue was still observed”.

Consider GKCSTRGRKSSRRKK [SEQ ID NO: 2], for which, in test [1] (setting [8]), the “fibrous deposition in the lungs (Sirius Red and hematoxylin/phloxine staining)” value is “significantly reduce fibrosis”. The “area of fibrosis (Sirius Red)” value in test [1] (setting [9]) is reported as “significant reduction”. The “expression of pSmad2” value in test [2] was “decreased with an increase in the concentration”. Besides, the “expression level of the TGFβ receptor” value in test [3] is listed as “no change”. In test [4], the “gene expression of E-cadherin (MET marker)” value is given as “increased”, the “gene expression of EpCAM (MET marker)” value is given as “increased”, the “gene expression of N-cadherin (EMT marker)” value is on record as “decreased” and the “gene expression of Snail1 (EMT marker)” value is on record as “decreased”. Also, the “gene expression of Twist1 (EMT marker)” value in test [4] was “decreased”. Further, the “expression of pSmad3” value in test [5] is reported as “completely disappeared”. Moreover, in test [6], the COL1A2 gene expression result is reported as “significantly reduced” and the COL3A1 gene expression result is recorded as “significantly reduced”. In test [7], the NAFLD activity score result is on record as “significantly reduced” and the “area of fibrosis (Masson's trichrome-positive area)” value was “significantly reduce”.

Regarding YGLRSKSKKFRRPDIQYPDAT [SEQ ID NO: 1], in test [1] (setting [8]), the “fibrous deposition in the lungs (Sirius Red and hematoxylin/phloxine staining)” value is recorded as “significantly reduce fibrosis”. Further, the “area of fibrosis (Sirius Red)” value in test [1] (setting [9]) is given as “significant reduction”. In addition, in test [6], the COL1A2 gene expression result is “significantly reduced” and the COL3A1 gene expression result is “significantly reduced”. In test [7], the NAFLD activity score entry is “significantly reduced” and the “area of fibrosis (Masson's trichrome-positive area)” value is listed as “significantly reduce”.
